Measurements as given in US20220177891A1, “HIPK INHIBITORS AND METHODS OF USE THEREOF” (Board of Regents, The University of Texas System, priority 2019, published 2022).
pIC50: −log10 of the molar value.

Key:
HIPK and FAK/pFAK = assay: Western blot of HIPK4-overexpressing triple negative breast cancer cells (FIG. 11B); assay type: cell-based, human
Method: (§1) Cells were plated into 6-well plate and grown for 1-2 days until reaching 70-80% confluence. Transfection of cells with HIPK4 cDNA was performed utilizing FuGENE® HD Transfection reagent. An amount of 2.5 μg of DNA and 7.5 μL of FuGENE® HD reagent were separately pipeted into 140 μL opti-MEM medium; incubate the FuGENE® HD transfection reagent/DNA mixture for 10-15 minutes at room temperature. Then the mixture was applied onto cells for 7 h in cell culture incubator. The transfection was stopped by replacing medium with complete medium. After 48 h, cells were harvest for further analysis.
(§2) Briefly, desired cells were harvested and lysed. The protein concentration in the lysates was quantified using the Bradford method with bovine serum albumin as standard. An equal amount of protein of 49 μg was separated by electrophoresis on SDS-polyacrylamide gels and transferred to PVDF membranes. After blocking with 5% nonfat milk, the membranes were incubated with the primary antibodies overnight at the following dilution: HIPK4 (1:500) and β-actin (1:20000). Subsequently, the membranes were incubated with appropriate secondary antibodies. The immunoreactive bands were visualized using enhanced chemiluminescence, as recommended by the manufacturer.

[1] = test system: MDA-MB-231 cells overexpressing HIPK4; assay: Transwell migration of HIPK4-overexpressing MDA-MB-231 cells (FIG. 11A); assay type: cell-based, human; conditions: MDA-MB-231 cells overexpressing HIPK4, FIG. 11A
Method: The in vitro migration and invasion assay was carried out using transwell chamber. Briefly, 0.2-2.0×10^5 cells/ml cells were suspended in serum-free medium with 5% bovine serum albumin and then were placed in the upper compartment, and medium with 5% fetal bovine serum was added in the lower compartment. Following incubation in cell culture incubator for 6-32 h, non-migratory and noninvasive cells on the upper surface were gently removed by a cotton swab. The cells on the bottom of membrane were stained with cell stain solution at room temperature for 10 min. Images of the invading cells were taken with at least three individual fields per chamber by a fluorescent inverted microscope (Olympus IX81 Motorized Inverted Microscope, Japan). The chambers were transferred to an empty well, and 200 μL of Extraction Solution was added to each well. After incubating 10 minutes on an orbital shaker, 100 μL of solution was transferred from each well to a 96-well microtiter plate for measurement under OD 560 nm in a plate reader.
as §1

HIPK4 [2] = biological target: T1, HIPK4 (Homo sapiens, UniProt Q8NE63); assay: Western blot of HIPK4 protein level with VIB-MDA compounds (FIG. 9); assay type: cell-based; set-up: endogenous in cells; context is GI101A and derivative cell lines
T1 sequence (Q8NE63 1-616): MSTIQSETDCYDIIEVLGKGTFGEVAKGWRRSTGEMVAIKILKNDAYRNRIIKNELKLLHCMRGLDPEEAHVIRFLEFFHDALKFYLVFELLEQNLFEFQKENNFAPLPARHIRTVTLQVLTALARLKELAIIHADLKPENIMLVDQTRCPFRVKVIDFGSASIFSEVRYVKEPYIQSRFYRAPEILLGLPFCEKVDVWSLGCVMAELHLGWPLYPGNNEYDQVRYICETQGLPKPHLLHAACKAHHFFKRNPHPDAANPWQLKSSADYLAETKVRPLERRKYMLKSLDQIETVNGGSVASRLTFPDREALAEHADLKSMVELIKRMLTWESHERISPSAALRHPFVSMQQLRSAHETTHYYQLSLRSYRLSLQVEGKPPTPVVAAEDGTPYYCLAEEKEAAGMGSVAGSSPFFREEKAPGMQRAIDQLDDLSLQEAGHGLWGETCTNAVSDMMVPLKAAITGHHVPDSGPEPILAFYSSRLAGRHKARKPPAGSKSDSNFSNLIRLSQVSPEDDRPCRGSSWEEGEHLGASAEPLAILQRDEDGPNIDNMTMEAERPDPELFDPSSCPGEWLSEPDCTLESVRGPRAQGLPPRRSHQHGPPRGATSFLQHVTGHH
Method: as §2

HIPK4 [3] = biological target: T1, HIPK4; assay: HIPK4 kinase inhibition by VIB-MDA compounds (FIG. 5, 6); assay type: biochemical; conditions: for potency and specificity for HIPK4: Table 1, FIG. 5
Transport into cells = assay type: cell-based
[4] = biological target: Breast Tumor Kinase (BRK) (Homo sapiens, UniProt Q13882); assay: Breast Tumor Kinase inhibition (FIG. 5); assay type: biochemical
Tyro3 = biological target: T2, Tyro3 (Homo sapiens, UniProt Q06418); assay: Tyro3 kinase inhibition (FIG. 5); assay type: biochemical
T2 sequence (Q06418 41-890): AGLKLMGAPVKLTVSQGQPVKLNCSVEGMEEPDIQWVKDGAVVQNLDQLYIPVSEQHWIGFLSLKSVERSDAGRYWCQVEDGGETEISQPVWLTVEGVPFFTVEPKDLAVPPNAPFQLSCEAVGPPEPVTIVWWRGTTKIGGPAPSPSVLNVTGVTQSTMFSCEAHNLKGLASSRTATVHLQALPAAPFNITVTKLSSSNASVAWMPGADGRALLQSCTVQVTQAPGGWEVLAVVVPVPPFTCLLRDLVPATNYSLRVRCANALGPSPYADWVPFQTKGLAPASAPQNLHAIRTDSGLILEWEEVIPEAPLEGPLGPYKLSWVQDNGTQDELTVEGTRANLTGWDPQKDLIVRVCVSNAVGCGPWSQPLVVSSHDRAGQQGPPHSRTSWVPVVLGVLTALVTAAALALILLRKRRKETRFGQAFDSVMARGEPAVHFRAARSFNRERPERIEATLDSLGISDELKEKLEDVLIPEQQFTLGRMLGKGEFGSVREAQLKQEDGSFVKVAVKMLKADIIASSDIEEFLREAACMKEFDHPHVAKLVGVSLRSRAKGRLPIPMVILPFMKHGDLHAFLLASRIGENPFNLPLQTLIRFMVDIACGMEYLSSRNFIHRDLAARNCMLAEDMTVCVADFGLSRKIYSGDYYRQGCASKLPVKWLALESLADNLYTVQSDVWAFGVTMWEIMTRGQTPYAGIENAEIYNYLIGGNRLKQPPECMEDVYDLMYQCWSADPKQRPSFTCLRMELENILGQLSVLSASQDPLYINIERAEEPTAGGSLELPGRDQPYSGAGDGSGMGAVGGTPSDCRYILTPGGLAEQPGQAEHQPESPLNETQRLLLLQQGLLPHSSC

DDR2 (Tyro10) = biological target: T3, DDR2 (Tyro10) (Homo sapiens, UniProt Q16832); assay: DDR2 kinase inhibition by VIB-MDA compounds (FIG. 5, 6B); assay type: biochemical
T3 sequence (Q16832 22-855): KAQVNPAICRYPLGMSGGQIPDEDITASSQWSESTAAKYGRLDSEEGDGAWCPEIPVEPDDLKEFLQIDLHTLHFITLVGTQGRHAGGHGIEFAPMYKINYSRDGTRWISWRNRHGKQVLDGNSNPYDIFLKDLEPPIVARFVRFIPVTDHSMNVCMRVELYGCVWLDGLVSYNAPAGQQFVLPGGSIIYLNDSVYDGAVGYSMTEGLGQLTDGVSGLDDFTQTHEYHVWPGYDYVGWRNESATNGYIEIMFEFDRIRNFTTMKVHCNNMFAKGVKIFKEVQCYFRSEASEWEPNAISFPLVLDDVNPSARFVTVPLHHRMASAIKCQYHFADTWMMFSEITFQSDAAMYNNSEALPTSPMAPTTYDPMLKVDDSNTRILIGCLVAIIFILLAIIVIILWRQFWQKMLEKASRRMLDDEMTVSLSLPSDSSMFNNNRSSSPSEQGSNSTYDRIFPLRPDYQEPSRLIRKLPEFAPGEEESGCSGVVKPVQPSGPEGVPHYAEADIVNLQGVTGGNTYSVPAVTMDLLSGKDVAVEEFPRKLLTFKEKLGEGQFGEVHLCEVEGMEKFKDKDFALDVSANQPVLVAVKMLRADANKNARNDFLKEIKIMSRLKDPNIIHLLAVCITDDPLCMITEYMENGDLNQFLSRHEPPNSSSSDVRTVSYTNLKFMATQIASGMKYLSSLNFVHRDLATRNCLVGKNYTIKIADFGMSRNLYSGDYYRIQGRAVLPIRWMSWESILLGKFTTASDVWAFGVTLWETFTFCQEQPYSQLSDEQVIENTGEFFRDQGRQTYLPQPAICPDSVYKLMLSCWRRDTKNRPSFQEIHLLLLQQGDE

Breast Tumor Kinase (BRK), sequence (Q13882 whole entry, species assumed): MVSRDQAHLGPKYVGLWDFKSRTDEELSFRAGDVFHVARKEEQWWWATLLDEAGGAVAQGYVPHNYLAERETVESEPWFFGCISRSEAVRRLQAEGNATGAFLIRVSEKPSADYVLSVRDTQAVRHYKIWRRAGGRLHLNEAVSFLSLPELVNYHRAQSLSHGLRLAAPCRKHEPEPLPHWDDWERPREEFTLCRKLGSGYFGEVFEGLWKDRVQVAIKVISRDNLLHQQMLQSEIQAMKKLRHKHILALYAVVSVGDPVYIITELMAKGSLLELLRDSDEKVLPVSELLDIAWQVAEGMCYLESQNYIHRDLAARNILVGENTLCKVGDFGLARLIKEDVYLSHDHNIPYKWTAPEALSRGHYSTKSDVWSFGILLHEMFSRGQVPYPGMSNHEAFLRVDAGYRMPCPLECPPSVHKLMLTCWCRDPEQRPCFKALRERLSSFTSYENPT

Which “expression of HIPK and FAK/pFAK” value (HIPK and FAK/pFAK) does the source give for `CNC(=O)c1cc(Oc2ccc(NC(=O)c3nc(S(C)(=O)=O)sc3-c3ccc(F)cc3)cc2)ccn1` [VIB-MDA-003] here?
Its value is “significantly inhibit”.

What about the “migration from HIPK-overexpression” value [1] of the same molecule?
The value was “significantly inhibit”.

What about the “inhibition of HIPK4 expression” value (HIPK4 [2]) of the same molecule?
The value was “Selective inhibition”.

What about the “potency and specificity for HIPK4” value (HIPK4 [3]) of the same molecule?
Its value is “extremely potent and highly specific for HIPK4”.

Which transport into cells (Transport into cells) does the source give for `CNC(=O)c1cc(Oc2ccc(NC(=O)c3nc(SC)oc3-c3ccc(F)cc3)cc2)ccn1` [VIB-MDA-002] here?
The transport into cells was “excellent transport into cells”.

And the “expression of HIPK and FAK/pFAK” value (HIPK and FAK/pFAK)?
The value was “significantly inhibit”.

What about the “potency for BRK relative to the other VIB-MDA compounds” value [4] of the same molecule?
Its value is “highest potency”.

What about the “potency for Tyro3 relative to the other VIB-MDA compounds” value (Tyro3) of the same molecule?
The value was “highest potency”.

And the “migration from HIPK-overexpression” value [1]?
The value was “significantly inhibit”.

What about the “inhibition of HIPK4 expression” value (HIPK4 [2]) of the same molecule?
The value was “Selective inhibition”.

And the “potency for DDR2 relative to the other VIB-MDA compounds” value (DDR2 (Tyro10); FIG. 5)?
Its value is “highest potency”.

What about the pIC50 (DDR2 (Tyro10); FIG. 6B, second most inhibited kinase) of the same molecule?
Its pIC50 is 7.00.

And the “potency for HIPK4 relative to the other VIB-MDA compounds” value (HIPK4 [3]; FIG. 5)?
Its value is “highest potency”.

What about the “blocking HIPK4 kinase activity” value (HIPK4 [3]; FIG. 6) of the same molecule?
Its value is “high efficacy”.

And the pIC50 (HIPK4 [3]; FIG. 6B)?
The pIC50 was 7.82.

And the “potency and specificity for HIPK4” value (HIPK4 [3])?
Its value is “extremely potent and highly specific for HIPK4”.

What about the “specificity for HIPK4 compared to Sorafenib” value (HIPK4 [3]; kinase inhibition profile, FIG. 6A) of the same molecule?
Its value is “greatly increased specificity”.

For `CNC(=O)c1cc(Oc2ccc(NC(=O)c3nc(SC)[nH]c3-c3ccc(F)cc3)cc2)ccn1` [VIB-MDA-001], which “expression of HIPK and FAK/pFAK” value (HIPK and FAK/pFAK) is on record?
Its value is “significantly inhibit”.

And the “migration from HIPK-overexpression” value [1]?
The value was “significantly inhibit”.

What about the “inhibition of HIPK4 expression” value (HIPK4 [2]) of the same molecule?
Its value is “Selective inhibition”.

And the “potency and specificity for HIPK4” value (HIPK4 [3])?
The value was “extremely potent and highly specific for HIPK4”.
